Laboratory results from patent US11110171B2, “PD-1 related cancer therapy” (New York University, priority 2017, dated 2021).

Assays:
[1] = system: phosphorylation of ERK, PLCγ and ZAP70 in Jurkat T cells; assay: Immunoblot of PD-1 signaling in Jurkat T cells stimulated with anti-CD3 or anti-CD3+PDL2 beads; type: cell-based, human; conditions: SAP-deficient (SAP KD) Jurkat T cells, SHP099 10 uM for one hour, anti-CD3+PDL2 beads 5 minutes
[2] = system: IL-2 secretion of human CD3+ T cells; assay: IL-2 secretion (ELISA) of primary human CD3+ T cells stimulated with anti-CD3 or anti-CD3+PDL2 beads; type: cell-based; conditions: control or SAP KD siRNA, anti-CD3+PDL2 beads 24 hours
Procedure: FIG. 13. (a) Jurkat T cells were transfected with non-targeting siRNA control and siRNA to SAP, followed by immunoblot analysis. […] Media was harvested and IL-2 levels were measured (ELISA). * P<0.05, NS not significant, n=3, unpaired t test. (c) control vector or SAP-expressing vector for 48 hours and samples were analyzed for SAP expression by immunoblotting. (d) Cell expressing SAP were stimulated overnight and CD69 expression levels were recorded by FACS. (e) T cells from XLP patients and healthy controls were tested for PD-1 expression by FACS analysis. For FIG. 7b 13b, the bars from left to right for each set are: Control, CD3, and CD3+PDL2.
By contrast, overexpression of SAP-GFP (FIG. 13c and FIG. 5b) abrogated the ability of PD-1 to inhibit anti-CD3-induced IL-2 secretion (FIG. 5c), CD69 up regulation (FIG. 5d and FIG. 13d), IFN-γ release (FIG. 5e), and T cell adhesion to fibronectin-coated wells (FIG. 5f). Thus, SAP appears to be a negative regulator of PD-1 signaling and function in T cells.
Primary human T cells were isolated from whole blood using RosetteSep (Stemcell) followed by Ficoll-Paque, according to the manufacturer's instructions. The cells were maintained in enriched media (HEPES 25 mM, Sodium pyruvate 100 mM, Nonessential amino acid, and L-Glutamine) at 5% C02 and 37° C. […]

## CC1(N)CCN(c2cnc(-c3cccc(Cl)c3Cl)c(N)n2)CC1.Cl [SHP099]
[1]
  PD-1's ability to inhibit the phosphorylation of ERK, PLCγ and ZAP70: abrogated
[2]
  PD-1's ability to inhibit IL-2 secretion: abrogation
